ChEMBL document CHEMBL1136414, “Structure-activity relationship of linear peptide Bu-His-DPhe-Arg-Trp-Gly-NH(2) at the human melanocortin-1 and -4 receptors: histidine substitution” (Bioorg Med Chem Lett, 2003)

Assays:
[1] = target: T1, Melanocyte-stimulating hormone receptor (Homo sapiens, UniProt Q01726); experiment: Agonist activity against human melanocortin receptor hMC1R; assay type: functional
Target sequence in this assay (Q01726 whole entry): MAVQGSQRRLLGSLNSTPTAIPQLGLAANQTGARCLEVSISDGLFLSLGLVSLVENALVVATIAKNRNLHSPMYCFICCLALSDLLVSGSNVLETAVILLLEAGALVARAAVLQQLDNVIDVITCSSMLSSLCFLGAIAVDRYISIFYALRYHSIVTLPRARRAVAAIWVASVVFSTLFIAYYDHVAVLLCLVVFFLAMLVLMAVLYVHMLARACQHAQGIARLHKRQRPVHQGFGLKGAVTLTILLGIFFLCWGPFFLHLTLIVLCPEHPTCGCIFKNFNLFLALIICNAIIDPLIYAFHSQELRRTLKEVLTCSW

Melanocortin receptor 4 [2] = target: T2, Melanocortin receptor 4 (Homo sapiens, UniProt P32245); experiment: Agonist activity against human melanocortin receptor hMC4R; assay type: functional
T2 sequence (P32245 whole entry): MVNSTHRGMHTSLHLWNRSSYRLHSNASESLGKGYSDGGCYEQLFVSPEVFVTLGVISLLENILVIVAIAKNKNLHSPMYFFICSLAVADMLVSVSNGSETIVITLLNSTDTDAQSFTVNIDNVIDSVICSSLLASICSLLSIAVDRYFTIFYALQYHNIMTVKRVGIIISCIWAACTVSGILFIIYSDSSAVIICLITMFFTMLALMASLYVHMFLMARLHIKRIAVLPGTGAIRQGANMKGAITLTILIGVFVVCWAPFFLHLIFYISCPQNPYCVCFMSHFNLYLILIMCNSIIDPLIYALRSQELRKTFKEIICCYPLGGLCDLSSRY

Melanocortin receptor 4 [3] = target: T2, Melanocortin receptor 4; experiment: Percent inhibition of human melanocortin receptor hMC4R at the concentration of 50 uM
[4] = target: T1, Melanocyte-stimulating hormone receptor; experiment: Percent inhibition of human melanocortin receptor hMC1R at the concentration of 50 uM
Target sequence in this assay (Q01726 whole entry, looked up): as the sequence (Q01726 whole entry) above

Melanocortin receptor 3 [5] = target: T3, Melanocortin receptor 3 (Homo sapiens, UniProt P41968); experiment: Agonist activity against human melanocortin receptor hMC3R measured as percent cAMP accumulation at the concentration of 50 uM; assay type: functional
T3 sequence (P41968 whole entry): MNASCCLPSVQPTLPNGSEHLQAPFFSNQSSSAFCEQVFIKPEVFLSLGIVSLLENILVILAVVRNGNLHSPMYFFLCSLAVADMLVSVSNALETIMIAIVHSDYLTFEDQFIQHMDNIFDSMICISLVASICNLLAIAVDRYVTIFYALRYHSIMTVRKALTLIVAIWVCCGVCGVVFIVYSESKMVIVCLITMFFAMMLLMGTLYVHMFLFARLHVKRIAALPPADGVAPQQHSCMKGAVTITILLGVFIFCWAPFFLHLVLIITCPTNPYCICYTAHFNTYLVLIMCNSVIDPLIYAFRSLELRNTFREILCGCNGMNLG

Melanocortin receptor 5 [6] = target: T4, Melanocortin receptor 5 (Homo sapiens, UniProt P33032); experiment: Agonist activity against human melanocortin receptor hMC5R measured as percent cAMP accumulation at the concentration of 50 uM; assay type: functional
T4 sequence (P33032 whole entry): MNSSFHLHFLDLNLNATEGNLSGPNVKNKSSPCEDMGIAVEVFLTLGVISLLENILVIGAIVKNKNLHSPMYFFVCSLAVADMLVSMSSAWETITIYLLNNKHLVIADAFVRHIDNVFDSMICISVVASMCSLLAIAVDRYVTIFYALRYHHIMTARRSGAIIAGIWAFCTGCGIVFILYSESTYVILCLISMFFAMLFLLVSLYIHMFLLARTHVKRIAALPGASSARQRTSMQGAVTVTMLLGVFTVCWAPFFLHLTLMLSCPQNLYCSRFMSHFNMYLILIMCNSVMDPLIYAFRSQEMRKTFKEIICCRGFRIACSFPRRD

Melanocortin receptor 4 [7] = target: T2, Melanocortin receptor 4; experiment: Binding affinity towards human melanocortin receptor hMC4R by using radioligand NDP-MSH
[8] = target: T1, Melanocyte-stimulating hormone receptor; experiment: Binding affinity towards human melanocortin receptor hMC1R by using radioligand NDP-MSH
Target sequence in this assay (Q01726 whole entry): as the sequence (Q01726 whole entry) above

[9] = target: T1, Melanocyte-stimulating hormone receptor; experiment: (§1) Agonist activity against human melanocortin receptor hMC1R at 50% maximum cAMP accumulation; assay type: functional
Target sequence in this assay (Q01726 whole entry, looked up): as the sequence (Q01726 whole entry) above

[10] = target: T1, Melanocyte-stimulating hormone receptor; experiment: as §1; assay type: functional; remark: listed apart in the source
Target sequence in this assay (Q01726 whole entry): as above

Melanocortin receptor 4 [11] = target: T2, Melanocortin receptor 4; experiment: Binding affinity towards human melanocortin receptor hMC4R by using radioligand NDP-MSH; not determined
Melanocortin receptor 3 [12] = target: T3, Melanocortin receptor 3; experiment: Binding affinity towards human melanocortin receptor hMC3R by using radioligand NDP-MSH
Melanocortin receptor 5 [13] = target: T4, Melanocortin receptor 5; experiment: Binding affinity towards human melanocortin receptor hMC5R by using radioligand NDP-MSH

| EC50 [1] [nM] | EC50 (Melanocortin receptor 4 [2]) [nM] | SMILES | also measured |
| --- | --- | --- | --- |
| 230 | 180 | CCCC(=O)N[C@@H](C)C(=O)NC(Cc1ccccc1)C(=O)N[C@@H](CCCN=C(N)N)C(=O)N[C@@H](Cc1c[nH]c2ccccc12)C(=O)NCC(N)=O (single isomer, unassigned) | – |
| 195 | 24 | CCCCC(=O)NC1(C(=O)NC(Cc2ccccc2)C(=O)N[C@@H](CCCNC(=N)N)C(=O)N[C@@H](Cc2c[nH]c3ccccc23)C(=O)NCC(N)=O)CCc2c(CC)cccc2C1 (single isomer, unassigned) | – |
| 295 | 13 | CCCCC(=O)NC1(C(=O)NC(Cc2ccccc2)C(=O)N[C@@H](CCCNC(=N)N)C(=O)N[C@@H](Cc2c[nH]c3ccccc23)C(=O)NCC(N)=O)CCc2c(cccc2C(C)C)C1 (single isomer, unassigned) | – |
| 990 | 120 | CCCCC(=O)NC1(C(=O)NC(Cc2ccccc2)C(=O)N[C@@H](CCCNC(=N)N)C(=O)N[C@@H](Cc2c[nH]c3ccccc23)C(=O)NCC(N)=O)CCc2c(cccc2OCC)C1 (single isomer, unassigned) | – |
| 4630 | – | CCCCC(=O)NC1(C(=O)NC(Cc2ccccc2)C(=O)N[C@@H](CCCN=C(N)N)C(=O)N[C@@H](Cc2c[nH]c3ccccc23)C(=O)NCC(N)=O)CCc2cc(Br)ccc2C1 (single isomer, unassigned; form 2) [listing 1 of 2 here] | – |
| 680 | 130 | CCCCC(=O)NC1(C(=O)NC(Cc2ccccc2)C(=O)N[C@@H](CCCNC(=N)N)C(=O)N[C@@H](Cc2c[nH]c3ccccc23)C(=O)NCC(N)=O)CCc2c(cccc2OC(C)C)C1 (single isomer, unassigned) | – |
| – | – | CCCCC(=O)NC1(C(=O)NC(Cc2ccccc2)C(=O)N[C@@H](CCCN=C(N)N)C(=O)N[C@@H](Cc2c[nH]c3ccccc23)C(=O)NCC(N)=O)CCc2cc(Br)ccc2C1 (single isomer, unassigned; form 1) [listing 1 of 2 here] | inhibition (Melanocortin receptor 4 [3]): 60% |
| 1950 | 1000 | CCCCC(=O)N[C@]1(C(=O)N[C@H](Cc2ccccc2)C(=O)N[C@@H](CCCN=C(N)N)C(=O)N[C@@H](Cc2c[nH]c3ccccc23)C(=O)NCC(N)=O)CCc2ccccc2C1 (stereo in doubt; form 2) | – |
| – | – | CCCCC(=O)NC1(C(=O)N[C@H](Cc2ccccc2)C(=O)N[C@@H](CCCN=C(N)N)C(=O)N[C@@H](Cc2c[nH]c3ccccc23)C(=O)NCC(N)=O)CCc2c(Br)cccc2C1 (single isomer, unassigned; isomer 2) | inhibition [4]: 50%; Accumulation (Melanocortin receptor 3 [5]): 0%; Accumulation (Melanocortin receptor 5 [6]): 32% |
| – | – | CCCC(=O)N[C@@H](Cc1c[nH]cn1)C(=O)N[C@H](Cc1ccccc1)C(=O)N[C@@H](CCCN=C(N)N)C(=O)N[C@@H](Cc1c[nH]c2ccccc12)C(=O)NCC(N)=O | Accumulation (Melanocortin receptor 3 [5]): 0%; Accumulation (Melanocortin receptor 5 [6]): 0% |
| – | – | CCCCC(=O)NC1(C(=O)N[C@H](Cc2ccccc2)C(=O)N[C@@H](CCCN=C(N)N)C(=O)N[C@@H](Cc2c[nH]c3ccccc23)C(=O)NCC(N)=O)CCc2c(cccc2N(C)C)C1 (single isomer, unassigned; isomer 2) | Accumulation (Melanocortin receptor 3 [5]): 0%; Accumulation (Melanocortin receptor 5 [6]): 24% |
| 2910 | – | CCCCC(=O)NC1(C(=O)N[C@H](Cc2ccccc2)C(=O)N[C@@H](CCCN=C(N)N)C(=O)N[C@@H](Cc2c[nH]c3ccccc23)C(=O)NCC(N)=O)CCc2cccc(Br)c2C1 (single isomer, unassigned; isomer 2) | inhibition (Melanocortin receptor 4 [3]): 0% |
| 1710 | – | CCCCC(=O)NC1(C(=O)NC(Cc2ccccc2)C(=O)N[C@@H](CCCN=C(N)N)C(=O)N[C@@H](Cc2c[nH]c3ccccc23)C(=O)NCC(N)=O)CCc2cccc(Br)c2C1 (single isomer, unassigned) | inhibition (Melanocortin receptor 4 [3]): 0% |
| – | 33 | CCCCC(=O)NC1(C(=O)NC(Cc2ccccc2)C(=O)N[C@@H](CCCN=C(N)N)C(=O)N[C@@H](Cc2c[nH]c3ccccc23)C(=O)NCC(N)=O)CCc2c(Br)cccc2C1 (single isomer, unassigned) | IC50 (Melanocortin receptor 4 [7]): 200 nM; IC50 [8]: 4.9 µM; Accumulation [9]: 75%; inhibition [4]: 75%; Accumulation (Melanocortin receptor 3 [5]): 0%; Accumulation (Melanocortin receptor 5 [6]): 0% |
| – | – | CCCCC(=O)NC1(C(=O)NC(Cc2ccccc2)C(=O)N[C@@H](CCCN=C(N)N)C(=O)N[C@@H](Cc2c[nH]c3ccccc23)C(=O)NCC(N)=O)CCc2ccc(Br)cc2C1 (single isomer, unassigned) | inhibition (Melanocortin receptor 4 [3]): 40%; inhibition [4]: 0% |
| 940 | 2 | CCCCC(=O)NC1(C(=O)N[C@H](Cc2ccccc2)C(=O)N[C@@H](CCCNC(=N)N)C(=O)N[C@@H](Cc2c[nH]c3ccccc23)C(=O)NCC(N)=O)CCc2c(cccc2N(C)C)C1 (single isomer, unassigned; isomer 1) | IC50 (Melanocortin receptor 4 [7]): 25 nM; IC50 [8]: 25.5 µM; EC50 [10]: 940 nM |
| 4380 | 290 | CCCC(=O)N[C@@]1(C(=O)N[C@H](Cc2ccccc2)C(=O)N[C@@H](CCCN=C(N)N)C(=O)N[C@@H](Cc2c[nH]c3ccccc23)C(=O)NCC(N)=O)CCc2ccccc2C1 (stereo in doubt; form 1) | – |
| – | 35 | CCCCC(=O)NC1(C(=O)N[C@H](Cc2ccccc2)C(=O)N[C@@H](CCCNC(=N)N)C(=O)N[C@@H](Cc2c[nH]c3ccccc23)C(=O)NCC(N)=O)CCc2c(Br)cccc2C1 (single isomer, unassigned; isomer 2) | IC50 (Melanocortin receptor 4 [11]): 105 nM; IC50 [8]: 5.1 µM |
| 1850 | 16 | CCCCC(=O)NC1(C(=O)N[C@H](Cc2ccccc2)C(=O)N[C@@H](CCCNC(=N)N)C(=O)N[C@@H](Cc2c[nH]c3ccccc23)C(=O)NCC(N)=O)CCc2c(cccc2N(C)C)C1 (single isomer, unassigned; isomer 2) | IC50 (Melanocortin receptor 4 [7]): 150 nM; IC50 [8]: 21.7 µM; EC50 [10]: 1850 nM |
| 3380 | – | CCCCC(=O)NC1(C(=O)NC(Cc2ccccc2)C(=O)N[C@@H](CCCN=C(N)N)C(=O)N[C@@H](Cc2c[nH]c3ccccc23)C(=O)NCC(N)=O)CCc2cc(Br)ccc2C1 (single isomer, unassigned; form 1) [listing 2 of 2 here] | – |
| 1220 | 35 | CCCCC(=O)NC1(C(=O)NC(Cc2ccccc2)C(=O)N[C@@H](CCCNC(=N)N)C(=O)N[C@@H](Cc2c[nH]c3ccccc23)C(=O)NCC(N)=O)CCc2c(C)cccc2C1 (single isomer, unassigned) | – |
| – | – | CCCCC(=O)NC1(C(=O)N[C@H](Cc2ccccc2)C(=O)N[C@@H](CCCN=C(N)N)C(=O)N[C@@H](Cc2c[nH]c3ccccc23)C(=O)NCC(N)=O)CCc2c(cccc2N(C)C)C1 (single isomer, unassigned; isomer 1) | Accumulation (Melanocortin receptor 3 [5]): 0%; Accumulation (Melanocortin receptor 5 [6]): 0% |
| 1480 | 90 | CCCCC(=O)NC1(C(=O)NC(Cc2ccccc2)C(=O)N[C@@H](CCCNC(=N)N)C(=O)N[C@@H](Cc2c[nH]c3ccccc23)C(=O)NCC(N)=O)CCc2c(cccc2OC)C1 (single isomer, unassigned) | – |
| 890 | 130 | CCCCC(=O)NC1(C(=O)N[C@H](Cc2ccccc2)C(=O)N[C@@H](CCCNC(=N)N)C(=O)N[C@@H](Cc2c[nH]c3ccccc23)C(=O)NCC(N)=O)CCc2c(Cl)cccc2C1 (single isomer, unassigned; isomer 2) | – |
| 5640 | 2940 | CCCC(=O)N[C@@]1(C(=O)N[C@H](Cc2ccccc2)C(=O)N[C@@H](CCCN=C(N)N)C(=O)N[C@@H](Cc2c[nH]c3ccccc23)C(=O)NCC(N)=O)CCc2ccccc2C1 (stereo in doubt; form 2) | – |
| 10 | 20 | CCCC(=O)N[C@@H](Cc1cnc[nH]1)C(=O)N[C@H](Cc1ccccc1)C(=O)N[C@@H](CCCNC(=N)N)C(=O)N[C@@H](Cc1c[nH]c2ccccc12)C(=O)NCC(N)=O | IC50 (Melanocortin receptor 4 [7]): 150 nM; IC50 (Melanocortin receptor 3 [12]): 4 µM; IC50 [8]: 0.58 µM; EC50 [10]: 10 nM; IC50 (Melanocortin receptor 5 [13]): 13.3 µM |
| 830 | 45 | CCCCC(=O)N[C@]1(C(=O)N[C@H](Cc2ccccc2)C(=O)N[C@@H](CCCN=C(N)N)C(=O)N[C@@H](Cc2c[nH]c3ccccc23)C(=O)NCC(N)=O)CCc2ccccc2C1 (stereo in doubt; form 1) | – |
| – | – | CCCCC(=O)NC1(C(=O)NC(Cc2ccccc2)C(=O)N[C@@H](CCCN=C(N)N)C(=O)N[C@@H](Cc2c[nH]c3ccccc23)C(=O)NCC(N)=O)CCc2cc(Br)ccc2C1 (single isomer, unassigned; form 2) [listing 2 of 2 here] | inhibition (Melanocortin receptor 4 [3]): 50% |
| 1400 | 600 | CCCCC(=O)NC1(C(=O)NC(Cc2ccccc2)C(=O)N[C@@H](CCCNC(=N)N)C(=O)N[C@@H](Cc2c[nH]c3ccccc23)C(=O)NCC(N)=O)CCc2c(Cl)cccc2C1 (single isomer, unassigned) | – |
